Publication PMC4550478, “Metronidazole-triazole conjugates: Activity against Clostridium difficile and parasites” (European Journal of Medicinal Chemistry, 2015)
Converted amounts (≈) assume the structure as drawn.

Legend:
[1] = test system: 8 additional drug resistant S. aureus strains, vancomycin resistant E. faecalis, vancomycin resistant E. faecium and multidrug resistant S. pneumoniae; experiment: MIC broth microdilution, drug resistant Gram-positive panel; format: cell-based; details: all strains of the panel
Procedure: All compounds were tested for activity against a set of anaerobic C. difficile bacteria (630 ATCC BAA-1382, NAP1/027 M7404, NAP1/027 ATCC BAA-1803, VPI10463 ATCC 43255, CD26A54_S and CD26A54_R) and representative ESKAPE pathogens S. aureus (MRSA ATCC 43300), E. coli (ATCC 25922), K. pneumoniae (ATCC 700603), A. baumannii (ATCC 19606) and P. aeruginosa (ATCC 27853) using a standard broth microdilution assay. Selected compounds were tested for activity against H. pylori strains (26695, and clinical isolates MtzS 13/25, MtzR 98/285 and MtzR 13/61) using agar plate dilution, and for antimicrobial activity against […] Gram-positive bacterial strains: Enterococcus faecalis (VanA clinical isolate), Enterococcus faecium (MDR VanA ATCC 51559), Streptococcus pneumoniae (MDR ATCC 700677), S. aureus (MRSA ATCC 43300, MRSA clinical isolate, MRSA/DRSA clinical isolate, GISA NARSA NRS 1, GISA NARSA NRS 17, VRSA NARSA VRS1, VRSA NARSA VRS4 and VRSA NARSA VRS10) using broth microdilution. C. difficile strains were grown at 37 °C in a COY anaerobic chamber (5% H2, 10% CO2, 85% N2). H. pylori strains were grown at 37 °C under a microaerobic atmosphere (5% O2, 10% CO2). All facultative anaerobic bacteria were grown at 37 °C with normal atmospheric oxygen levels. All experiments were performed in duplicate with metronidazole, vancomycin, linezolid or colistin as positive controls for relevant strains (see Table 1). Positive growth control of bacteria and DMSO as well as a negative control of only media were included for every plate. Full assay details are provided in the supplementary information.
MICs were determined by a two-fold serial broth micro dilution according to the recommendation of CLSI standards with an inoculum of 5 × 10^5 CFU/mL^4 The compounds along with standard antibiotics were serially diluted twofold across the wells of 96-well non-binding surface plates (NBS, Corning). Standards ranged from 64 to 0.03 μg/mL, and the compounds from 128 to 0.06 μg/mL with final volumes of 50 μL per well. Gram-positive and Gram-negative bacteria were cultured in Mueller Hinton broth (MHB) (Bacto laboratories, Cat. no. 211443) at 37 °C overnight. A sample of each culture was then diluted 40-fold in fresh MHB broth and incubated at 37 °C for 2-3 h. The resultant mid-log phase cultures were diluted to the final concentration of 5 × 10^5 CFU/mL, then 50 μL was added to each well of the compound containing 96-well plates. All the plates were covered and incubated at 37 °C for 24 h.

[2] = test system: H. pylori clinical isolate 98/285; experiment: Metronidazole E-test, H. pylori 98/285; format: cell-based; details: Helicobacter pylori
Procedure: (§1) Helicobacter pylori strains, with a range of resistance levels to metronidazole (256 µg/ml, 64 µg/ml, 24 µg/ml, 2 µg/ml, and 0.04 µg/ml), were selected and obtained from Helicobacter Research Laboratory, University of Western Australia. The resistance strength to metronidazole was recorded according to eTest (bioMérieux). H. pylori strain 26695 was used as the control. H. pylori was maintained on the non-selective Columbia blood agar plates (CBA) (Columbia agar base Oxoid) with 5% horse blood and incubated at 37 °C and 10% CO2 for 48 hrs. […] Each of the H. pylori strains were harvested, OD600 calibrated to 0.3, and spotted in triplicate on CBA pre-mixed with the compound. The lowest concentration of antibiotic showing no growth was read as the MIC. The experiment was performed in duplicate.

[3] = test system: C. difficile NAP1/027 CD26A54_S; experiment: Metronidazole E-test on BAKHS, C. difficile CD26A54_S; format: cell-based, Clostridium difficile; details: Clostridioides difficile, BAKHS agar
Procedure: (§2) Mid-log phase (OD600 =0.5- 0.6) culture was diluted to a 0.5 McFarland standard (OD600~ 0.1) in prereduced broth. The diluted culture was inoculated onto duplicate BAKHS agar plate using a cotton tip applicator. The inoculum was allowed to dry before the Metronidazole E-test strip (Metronidazole MZH 256-S30, bioMérieux Australia) was placed in duplicate on the surface of the agar. The agar plate was inverted and incubated for up to 96 hr. The MIC was read as the point at which the elliptical zone of inhibition intercepted the E-test strip at 24, 48 and 96 hr.

[4] = test system: C. difficile NAP1/027 CD26A54_R; parameters: method as in PMID 24400070; details: cited from earlier work
[5] = in vivo; cited from earlier work
[6] = test system: H. pylori clinical isolate 13/25; experiment: Metronidazole E-test, H. pylori 13/25; format: cell-based; details: Helicobacter pylori
Procedure: as §1

[7] = test system: C. difficile NAP1/027 CD26A54_R; experiment: Metronidazole E-test on BAKHS, C. difficile CD26A54_R; format: cell-based, Clostridium difficile; details: BAKHS agar; for MIC: Clostridioides difficile
Procedure: as §2

[8] = test system: C. difficile NAP1/027 CD26A54_R; parameters: method as in PMID 24400070; details: cited from earlier work; remark: listed apart in the source
[9] = test system: H. pylori clinical isolate 13/61; experiment: Metronidazole E-test, H. pylori 13/61; format: cell-based; details: Helicobacter pylori
Procedure: as §1

Cc1ncc([N+](=O)[O-])n1CCN=[N+]=[N-] [Compound 3, 1-(2-azidoethyl)-2-methyl-5-nitro-1H-imidazole]
MIC against panel of drug resistant Gram-positive strains [1]: > 64 µg/mL

Cc1ncc([N+](=O)[O-])n1CCO [Compound 1, metronidazole]
MIC [2]: 24 µg/mL (≈ 140 µM)
MIC ([3]; 24 hrs): 6 µg/mL (≈ 35.1 µM)
MIC ([3]; 48 hrs): 8 µg/mL (≈ 46.7 µM)
MIC ([3]; 96 hrs): 8 µg/mL (≈ 46.7 µM)
Metronidazole MIC by E-test, MtzR C. difficile, reported by Chong et al. [4]: > 32 µg/mL
oral bioavailable [5]: 100%
MIC [6]: 2 µg/mL (≈ 11.7 µM)
Metronidazole E-test MIC CD26A54_R ([7]; 48 hrs): 48 µg/mL
MIC ([7]; 24 hrs): 32 µg/mL (≈ 187 µM)
MIC ([7]; 48 hrs): 48 µg/mL (≈ 280 µM)
MIC ([7]; 96 hrs): 48 µg/mL (≈ 280 µM)
MIC to metronidazole in broth, MtzR C. difficile, reported by Chong et al. [8]: 8 µg/mL (≈ 46.7 µM)
MIC [9]: 256 µg/mL (≈ 1500 µM)
